Assay results as given in publication PMC6438731, “Extrasynaptic δ‐GABAA receptors are high‐affinity muscimol receptors” (Journal of Neurochemistry, 2019).
Several values for one entry are separate records, joined by “and”; a condition that tells them apart may be missing. Equal entries are not always repeated. Where two headings read alike, the source gives them in different places.

What was measured:
[1] = target: forebrain membranes of WT mice; assay: Saturation analysis of [^3H]muscimol binding, WT forebrain membranes; set-up: species or system mouse; settings: 0°C
Method: (§1) WT and δKO forebrain and cerebellar membranes were prepared using a modification of the method of Squires and Saederup (2000) essentially as described by Uusi‐Oukari et al. (2014). […] forebrain along with midbrain region was homogenized into 10 mM Tris‐HCl, pH 8.0 buffer containing 2 mM EDTA, using an Ultra‐Turrax T25 (Janke & Kunkel IKA labortechnik) for 20 s at 9500 rpm. The homogenates were centrifuged at 20 000 g for 10 min at +4°C and the resulting pellets were washed three times by resuspension and re‐centrifugation with 10 mM Tris‐HCl, pH 8.5 buffer containing 0.2 M NaCl, and 5 mM EDTA. The resulting pellets were then suspended in ice‐cold H2O and centrifuged. The pellets were again washed three times with Tris, pH 8.5/NaCl/EDTA as described above. The resulting pellets were finally suspended in assay buffer consisting of 50 mM Tris‐base, pH adjusted to 7.4 with citric acid, and frozen at −70°C. Before a binding experiment, the suspension was thawed, centrifuged, and suspended in assay buffer.
(§2) Saturation analysis of [^3H]muscimol to WT and δKO mouse forebrain and cerebellar membranes was performed essentially as described by Uusi‐Oukari and Korpi (1989). […] The incubations were terminated as described above.

[2] = target: forebrain membranes of δKO mice; assay: Saturation analysis of [^3H]muscimol binding, δKO forebrain membranes; set-up: species or system mouse; settings: 0°C
Method: as §1, §2

[3] = target: cerebellar membranes of WT mice; assay: Saturation analysis of [^3H]muscimol binding, WT cerebellar membranes; set-up: species or system mouse; settings: 0°C
Method: as §1, §2

[4] = target: cerebellar membranes of δKO mice; assay: Saturation analysis of [^3H]muscimol binding, δKO cerebellar membranes; set-up: species or system mouse; settings: 0°C
Method: as §1, §2

[5] = target: forebrain membranes of WT mice; assay: [^3H]muscimol binding kinetics, WT forebrain membranes; set-up: species or system mouse
Method: as §1
(§3) The binding of [^3H]muscimol (5 nM) was measured in assay buffer at 22°C in a total volume of 300 μL. Triplicate technical replicates of mouse forebrain (190–215 μg protein), cerebellar (180–210 μg protein) or HEK cell (92–132 μg protein) membranes for each time point were incubated with shaking for various times (15 s–15 min) to measure association of the binding. […] Air‐dried filters were immersed in 3 mL of Optiphase HiSafe 3 scintillation fluid (Wallac, Turku, Finland) and radioactivity determined in a Wallac model 1410 liquid scintillation counter (Wallac, Turku, Finland). […]
(§4) The tubes were mixed and incubations at 22°C were terminated at various time points (30 s – 30 min) as described above. Dissociation of [^3H]muscimol from recombinant receptors in HEK cell membranes was also measured at 0–4°C (on ice) to evaluate how fast [^3H]muscimol dissociates from receptors while washing the filter with ice‐cold assay buffer during filtration.

[6] = target: forebrain membranes of δKO mice (non‐δ‐GABAARs); assay: [^3H]muscimol binding kinetics, δKO forebrain membranes; set-up: species or system mouse
Method: as §1
(§5) The binding of [^3H]muscimol (5 nM) was measured in assay buffer at 22°C in a total volume of 300 μL. Triplicate technical replicates of mouse forebrain (190–215 μg protein), cerebellar (180–210 μg protein) or HEK cell (92–132 μg protein) membranes for each time point were incubated with shaking for various times (15 s–15 min) to measure association of the binding. […] The incubation was terminated by filtration of the samples with a Brandel Cell Harvester (model M‐24, Gaithersburg, MD, USA) onto Whatman GF/B filters (Whatman International Ltd., Maidstone, UK). The samples were rinsed twice with 4–5 mL of ice‐cold assay buffer. Filtration and rinsing steps took a total time of ~15 s. Air‐dried filters were immersed in 3 mL of Optiphase HiSafe 3 scintillation fluid (Wallac, Turku, Finland) and radioactivity determined in a Wallac model 1410 liquid scintillation counter (Wallac, Turku, Finland). The maximal binding disintegrations per minute (DPM) values (at 15 min in association) for recombinant studies with 5 nM [^3H]muscimol were between 700 and 2500 DPMs of specific binding (background subtracted). In native membranes, the maximal DPM values were between 2500 and 3000 for WTs and 1300–1500 for δKOs.
as §4

[7] = target: native δ‐GABAARs in the forebrain (WT‐δKO, predominantly α4βδ) (Mus musculus, UniProt P63137+Q9D6F4); assay: [^3H]muscimol binding kinetics, forebrain WT‐δKO (subtracted); settings: 22°C
Method: as §1, §3
as §4, with “filtration. […]” for “filtration.”

[8] = target: cerebellar membranes of δKO mice (non‐δ‐GABAARs); assay: [^3H]muscimol binding kinetics, δKO cerebellar membranes; set-up: species or system mouse
Method: as §1, §3, §4

[9] = target: native δ‐GABAARs in the cerebellum (WT‐δKO, α6βδ) (Mus musculus, UniProt P16305+P63137); assay: [^3H]muscimol binding kinetics, cerebellum WT‐δKO (subtracted); settings: 22°C
Method: as §1, §3
as §4, with “filtration. […]” for “filtration.”

[10] = target: T1, α6β2γ2 recombinant GABAA receptor (Rattus norvegicus, UniProt P30191+P63138); assay: [^3H]muscimol binding kinetics, recombinant α6β2γ2 in HEK293 membranes
T1 construct: expressed in transfected cells; host or cells: HEK293 (ATCC CRL-1573), pRK5 plasmids, membranes
From the text: (§6) Human embryonic kidney (HEK) 293 cells (ATCC Cat# CRL‐1573; RRID: CVCL_0045; a commonly misidentified cell line by ICLAC; last authenticated by STR DNA profiling in December 2018) were transfected with rat cDNAs (α1, L08490; α6, L08495; β2, X15467; β3, X15468; γ2S, L08497; δ, L08496) in pRK5 plasmids under the control of the cytomegalovirus promoter (Uusi‐Oukari et al. 2000), using the calcium phosphate precipitation method essentially as described (Lüddens and Korpi 1997). The plasmids were used in 1 : 1 and 1 : 1 : 1 ratios for transfections containing 2 [(α1 or α6) + (β2 or β3)] or 3 [(α1 or α6) + (β2 or β3) + (γ2S or δ)] different subunits, respectively (5 μg of each plasmid DNA for a 10 cm plate). Mock transfection was done using 5 μg pRK5 plasmid backbone. The cells were harvested 48 h after transfection. Culture medium was removed and the cells were detached from the plates by pipetting in ice‐cold assay buffer containing 2 mM EDTA. The cells were homogenized (Ultra Turrax, 20 s at 9500 rpm), the homogenates centrifuged at 20 000 g for 10 min at +4°C, and washed once with the same buffer. The homogenates were finally suspended in assay buffer (1 mL/plate) and either used directly to binding assays or stored frozen at −70°C.
as §5, with “In native membranes, the maximal DPM values were between 2500 and 3000 for WTs and 1300–1500 for δKOs.” left out
as §4

[11] = target: T2, α6β3δ recombinant GABAA receptor (Rattus norvegicus, UniProt P30191+P63079); assay: [^3H]muscimol binding kinetics, recombinant α6β3δ in HEK293 membranes
T2 construct: expressed in transfected cells; host or cells: HEK293 (ATCC CRL-1573), pRK5 plasmids, membranes
From the text: as §6
The binding of [^3H]muscimol (5 nM) was measured in assay buffer at 22°C in a total volume of 300 μL. […] Air‐dried filters were immersed in 3 mL of Optiphase HiSafe 3 scintillation fluid (Wallac, Turku, Finland) and radioactivity determined in a Wallac model 1410 liquid scintillation counter (Wallac, Turku, Finland). […]
as §4

[12] = room temperature (22°C), 5 nM [^3H]muscimol
[13] = forebrain WT‐δKO (native δ‐GABAARs, by subtraction)
[14] = cerebellum WT‐δKO (native δ‐GABAARs, by subtraction)

T2 sequence (P30191 20-453): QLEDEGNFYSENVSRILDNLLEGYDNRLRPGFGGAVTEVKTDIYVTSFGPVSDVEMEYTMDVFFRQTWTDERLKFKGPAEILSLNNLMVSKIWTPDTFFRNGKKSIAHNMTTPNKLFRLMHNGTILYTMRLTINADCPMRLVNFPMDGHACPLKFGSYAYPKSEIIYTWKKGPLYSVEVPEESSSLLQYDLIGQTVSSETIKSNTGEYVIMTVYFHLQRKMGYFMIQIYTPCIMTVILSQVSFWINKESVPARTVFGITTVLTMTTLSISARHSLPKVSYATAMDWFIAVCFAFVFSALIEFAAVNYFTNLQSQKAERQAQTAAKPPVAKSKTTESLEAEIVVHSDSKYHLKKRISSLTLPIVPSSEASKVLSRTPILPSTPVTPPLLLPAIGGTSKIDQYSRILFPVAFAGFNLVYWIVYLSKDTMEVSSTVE
T2 sequence (P63079 26-473): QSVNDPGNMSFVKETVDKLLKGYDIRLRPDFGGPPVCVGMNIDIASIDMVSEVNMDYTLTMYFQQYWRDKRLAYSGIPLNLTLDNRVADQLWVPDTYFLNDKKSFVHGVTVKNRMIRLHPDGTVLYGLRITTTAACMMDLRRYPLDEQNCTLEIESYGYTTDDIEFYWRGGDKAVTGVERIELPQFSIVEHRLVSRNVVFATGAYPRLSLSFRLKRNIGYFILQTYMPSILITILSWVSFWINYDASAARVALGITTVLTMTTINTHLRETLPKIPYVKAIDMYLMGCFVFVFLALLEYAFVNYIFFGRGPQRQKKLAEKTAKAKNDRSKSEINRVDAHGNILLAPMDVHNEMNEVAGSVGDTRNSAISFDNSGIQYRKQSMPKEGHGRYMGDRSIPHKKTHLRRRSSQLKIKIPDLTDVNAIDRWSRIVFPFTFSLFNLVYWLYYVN
T2 sequence (P18506 25-449 partner): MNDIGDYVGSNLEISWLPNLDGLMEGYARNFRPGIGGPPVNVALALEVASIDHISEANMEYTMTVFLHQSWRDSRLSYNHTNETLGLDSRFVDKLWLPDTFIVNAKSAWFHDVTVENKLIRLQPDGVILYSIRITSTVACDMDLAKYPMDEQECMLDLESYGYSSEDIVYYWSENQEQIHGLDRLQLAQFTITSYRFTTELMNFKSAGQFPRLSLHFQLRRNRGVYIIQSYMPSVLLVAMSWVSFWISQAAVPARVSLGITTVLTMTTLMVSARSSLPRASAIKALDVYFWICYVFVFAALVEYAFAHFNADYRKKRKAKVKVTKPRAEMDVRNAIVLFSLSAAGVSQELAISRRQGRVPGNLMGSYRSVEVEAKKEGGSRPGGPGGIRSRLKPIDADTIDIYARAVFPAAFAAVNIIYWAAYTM
T1 sequence (P30191 20-453): as the sequence (P30191 20-453) above
T1 sequence (P63138 26-474): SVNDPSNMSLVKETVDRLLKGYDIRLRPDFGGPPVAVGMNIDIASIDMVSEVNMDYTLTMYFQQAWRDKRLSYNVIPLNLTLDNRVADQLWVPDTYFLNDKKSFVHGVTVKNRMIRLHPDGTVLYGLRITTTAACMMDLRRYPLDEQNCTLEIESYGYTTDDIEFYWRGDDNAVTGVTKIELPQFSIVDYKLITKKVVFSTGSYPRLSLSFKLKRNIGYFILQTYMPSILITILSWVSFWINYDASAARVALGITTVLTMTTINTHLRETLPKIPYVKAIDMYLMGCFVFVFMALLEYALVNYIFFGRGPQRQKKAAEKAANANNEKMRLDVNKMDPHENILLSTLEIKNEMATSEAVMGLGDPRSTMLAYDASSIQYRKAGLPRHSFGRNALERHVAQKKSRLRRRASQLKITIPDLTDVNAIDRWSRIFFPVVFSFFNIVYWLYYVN
T1 sequence (P18508 39-466 partner): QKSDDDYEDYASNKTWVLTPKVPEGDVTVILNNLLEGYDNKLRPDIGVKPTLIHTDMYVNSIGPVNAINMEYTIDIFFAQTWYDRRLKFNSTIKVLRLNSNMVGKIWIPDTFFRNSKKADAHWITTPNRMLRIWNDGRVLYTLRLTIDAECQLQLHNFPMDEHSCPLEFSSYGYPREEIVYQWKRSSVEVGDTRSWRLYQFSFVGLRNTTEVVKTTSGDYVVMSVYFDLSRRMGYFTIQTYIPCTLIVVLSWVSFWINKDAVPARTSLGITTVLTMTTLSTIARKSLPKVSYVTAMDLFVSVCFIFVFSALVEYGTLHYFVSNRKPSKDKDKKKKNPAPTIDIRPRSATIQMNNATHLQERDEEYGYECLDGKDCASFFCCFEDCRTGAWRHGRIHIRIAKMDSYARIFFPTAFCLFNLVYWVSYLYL
native δ‐GABAARs in the cerebellum (WT‐δKO, α6βδ), sequence (P16305 20-453): as the sequence (P30191 20-453) above, with H121Q, S163T, K325T, T333A, T334S, E338Q, V371A, P379K, T384S, I392T counted along it
native δ‐GABAARs in the cerebellum (WT‐δKO, α6βδ), sequence (P63137 26-512): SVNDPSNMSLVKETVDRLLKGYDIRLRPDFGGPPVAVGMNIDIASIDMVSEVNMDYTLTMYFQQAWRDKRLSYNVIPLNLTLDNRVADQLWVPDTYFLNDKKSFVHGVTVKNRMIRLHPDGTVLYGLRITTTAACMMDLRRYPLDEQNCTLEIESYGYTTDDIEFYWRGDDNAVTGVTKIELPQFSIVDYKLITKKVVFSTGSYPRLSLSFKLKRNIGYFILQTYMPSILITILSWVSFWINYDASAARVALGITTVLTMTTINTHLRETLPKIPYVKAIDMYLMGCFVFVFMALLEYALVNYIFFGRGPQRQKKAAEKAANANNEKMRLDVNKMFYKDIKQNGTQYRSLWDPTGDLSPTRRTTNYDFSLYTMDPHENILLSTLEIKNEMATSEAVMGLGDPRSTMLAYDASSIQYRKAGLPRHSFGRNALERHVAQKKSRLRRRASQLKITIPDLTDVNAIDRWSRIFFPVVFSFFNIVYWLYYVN
native δ‐GABAARs in the cerebellum (WT‐δKO, α6βδ), sequence (P22933 25-449 partner): as the sequence (P18506 25-449 partner) above, with P38A, M149L counted along it
native δ‐GABAARs in the forebrain (WT‐δKO, predominantly α4βδ), sequence (Q9D6F4 36-552): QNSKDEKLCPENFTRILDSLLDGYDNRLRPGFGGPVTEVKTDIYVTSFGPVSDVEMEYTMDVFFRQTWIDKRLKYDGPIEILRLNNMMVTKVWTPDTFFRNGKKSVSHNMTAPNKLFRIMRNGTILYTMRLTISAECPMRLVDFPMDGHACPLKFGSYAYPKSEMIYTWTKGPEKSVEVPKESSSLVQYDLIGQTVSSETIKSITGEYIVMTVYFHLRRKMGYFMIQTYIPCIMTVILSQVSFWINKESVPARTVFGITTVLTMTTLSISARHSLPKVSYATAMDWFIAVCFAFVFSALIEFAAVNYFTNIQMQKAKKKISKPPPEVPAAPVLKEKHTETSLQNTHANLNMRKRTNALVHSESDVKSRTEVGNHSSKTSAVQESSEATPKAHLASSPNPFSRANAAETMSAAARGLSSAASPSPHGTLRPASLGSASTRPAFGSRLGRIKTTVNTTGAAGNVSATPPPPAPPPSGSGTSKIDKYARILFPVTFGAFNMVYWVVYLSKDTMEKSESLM
native δ‐GABAARs in the forebrain (WT‐δKO, predominantly α4βδ), sequence (P63137 26-512): as the sequence (P63137 26-512) above
native δ‐GABAARs in the forebrain (WT‐δKO, predominantly α4βδ), sequence (P22933 25-449 partner): as the sequence (P18506 25-449 partner) above, with P38A, M149L counted along it

NCc1cc(=O)[nH]o1 [[^3H]muscimol] [[Methylene‐^3H]muscimol]
Apparent pKD [1]: 8.02 ± 0.06
Apparent pKD [2]: 7.68 ± 0.05
Apparent pKD [3]: 8.34 ± 0.01
Apparent pKD [4]: 8.15 ± 0.02
Kd ([5]; 22°C, K D = koff/kon): 1.6 nM
k off ([5]; room temperature (22°C)): 0.00883 ± 0.00033 s⁻¹
k on [5, 12]: 3.3 ± 0.2 × 10^8 M^−1 × min^−1
Kd ([6]; calculated from k on and k off, read-out: apparent [^3H]muscimol affinities (K D) for non‐δ‐GABAARs): ~1 nM
Kd ([6]; forebrain membranes, 22°C, K D = koff/kon, read-out: K D): 1.1 nM
k off ([6]; forebrain membranes, room temperature (22°C)): 1.67 ± 0.15 ^*** min^−1
k on ([6]; forebrain membranes, room temperature (22°C), 5 nM [^3H]muscimol): 15 ± 3.1 × 10^8 ^** M^−1 × min^−1
k off [7, 13]: 0.00383 ± 0.00033 s⁻¹
k on [7, 13]: 1.4 ± 0.2 × 10^8 M^−1 × min^−1
Kd ([7]; forebrain WT‐δKO (native δ‐GABAARs, α4βδ), K D = koff/kon): ~1.6 nM and 1.6 nM
Kd ([8]; 22°C, K D = koff/kon): 1.4 nM
k off ([8]; room temperature (22°C)): 1.11 ± 0.09 ^* min^−1
k on [8, 12]: 7.7 ± 0.2 × 10^8 ^** M^−1 × min^−1
k off [9, 14]: 0.002 ± 0.0005 s⁻¹
k on [9, 14]: 1.2 ± 0.2 × 10^8 M^−1 × min^−1
Kd ([9]; cerebellum WT‐δKO (native δ‐GABAARs, α6βδ), K D = koff/kon): ~1 nM and 1 nM
Kd ([10]; 22°C, K D = koff/kon): 1.6 nM
k off ([10]; +4 °C): 0.086 ± 0.010 ^, ^** min^−1
k off ([10]; room temperature (22°C)): 0.98 ± 0.02 ^### ^, ^††† min^−1
k on [10, 12]: 6.3 ± 0.5 × 10^8, ^### ^, ^††† M^−1 × min^−1
Kd ([11]; 22°C, K D = koff/kon): 0.72 nM
k off ([11]; room temperature (22°C)): 0.13 ± 0.01 ^### min^−1
k on [11, 12]: 1.8 ± 0.1 × 10^8, ^### M^−1 × min^−1
